In ChEMBL document CHEMBL1150281, “Oleanane-type triterpenes from the flowers and roots of Saussurea muliensis” (2008):

Legend:
Assay type in all cases: functional
[1] = system: Staphylococcus aureus; experiment: Antimicrobial activity against Staphylococcus aureus ATCC 25923
[2] = system: Escherichia coli; experiment: Antimicrobial activity against Escherichia coli ATCC 25922
[3] = system: Bacillus cereus; experiment: Antimicrobial activity against Bacillus cereus
[4] = system: Candida albicans; experiment: Antimicrobial activity against Candida albicans

Measured: MIC

CCCCCCCCCCCCCCCC(=O)OC[C@@]1(O)C[C@H]2C3=CC[C@@H]4[C@@]5(C)CC[C@@H](OC(C)=O)C(C)(C)[C@@H]5CC[C@@]4(C)[C@]3(C)CC[C@@]2(C)[C@@H](OC(C)=O)[C@H]1O
> 50 µg/mL: all assays above

CO[C@]1(CO)C[C@H]2C3=CC[C@@H]4[C@@]5(C)CC[C@@H](OC(C)=O)C(C)(C)[C@@H]5CC[C@@]4(C)[C@]3(C)CC[C@@]2(C)[C@@H](OC(C)=O)[C@H]1O
> 50 µg/mL: all assays above

CC1(C)[C@H](OC(=O)/C=C/c2ccc(O)cc2)CC[C@]2(C)[C@H]3CC=C4[C@@H]5C[C@@](C)(C(=O)O)CC[C@]5(C)CC[C@@]4(C)[C@]3(C)CC[C@@H]12
> 50 µg/mL: all assays above

CC1(C)[C@@H](O)CC[C@]2(C)[C@H]3CC=C4[C@@H]5C[C@@](C)(C(=O)O)C[C@H](O)[C@]5(C)CC[C@@]4(C)[C@]3(C)CC[C@@H]12
> 50 µg/mL: all assays above

CC(=O)O[C@@H]1CC[C@]2(C)[C@H]3CC=C4[C@@H]5C[C@](O)(CO)[C@H](O)[C@H](OC(C)=O)[C@]5(C)CC[C@@]4(C)[C@]3(C)CC[C@H]2C1(C)C
> 50 µg/mL: all assays above

CC1(C)[C@H](OC(=O)/C=C/c2ccc(O)c(O)c2)CC[C@]2(C)[C@H]3CC=C4[C@@H]5C[C@@](C)(C(=O)O)CC[C@]5(C)CC[C@@]4(C)[C@]3(C)CC[C@@H]12
> 50 µg/mL: all assays above
